# What was measured:
# rats = assay: General neuropharmacological profile: behaviour observation (excitation, bursts, sedation) after i.p. administration; assay type: in vivo; details: rat; for Neuropharmacological profile: different dosage levels; for Potency compared with GHB / Duration of action compared with GHB: excitatory effects
# Protocol: The tests, which were intended to evaluate the neuropharmacological activity of the amides of the invention, were conducted on rats, because most of the data available in the literature concern said animal species.
# The time at which the effects started, their intensity and duration were recorded.
# Molecules were evaluated by systematically using a control group, in which rats had been treated with the utilized solvent, and a positive control group, in which rats had been treated intraperitoneally (i.p.) with a standard dose of GHB sodium salt (100 mg/kg) in 2 ml. GHB and the assayed amides were administered in 50% DMSO in distilled water.
# Said dose of drug, used as a reference, produced typical excitatory effects, characterized by the onset of generic excitation accompanied by more particular paroxysms, the so-called BURSTS of excitation.
# Generic excitation was characterized by an increased motor activity, extremely sharp and jerky movements, higher reactivity and shakes.
# “Bursts” of excitation were typical and well recognizable: the animals fought and frantically pursued each other.
# Recordings concerned the number of “bursts”, the time of their onset after treatment, their intensity, the partial or total involvement of treated animals, the duration of the single episodes.
# The sedation produced by higher doses of the molecules examined was evaluated analogously: time of onset, degree of sedation, partial or total involvement, duration of the effects.
# Table 2—General Neuropharmacological Profile of Benzylamido Derivatives of GHB Compared With a 100 mq/kg Dose of GHB (Excitatory Dose)
# [1] = system: motor activity of the rat; assay: Effects on the motor activity of the rat; assay type: in vivo; details: i.p., first half hour after administration
# Protocol: Utilizing these preliminary goods results, the effects of said compounds were studied on the rats motor activity. This experiment permits to obtain a more objective evaluation about the effectiveness of the tested molecules, confirming and specifying the effective dosages, start and duration of the effects.
# For these tests too, rats were subdvided into two groups: a control group of rats treated with the solvent and a positive control group consisting of rats treated i.p. with 300 mg/kg/2 ml GHB sodium salt in the aforesaid solvent.
# GHB was systematically used as a reference: when administered at the above doses its motor reducing action spans a wide variation range.
# Table 3—Effects on the Motor Activity Produced by Some Benzylamido Derivatives of GHB Compared With a 300 mg/kg Dose of GHB (Sedative Dose)
# The following table reports data referred to the first half hour after administration. The per cent decreases in motor activity in respect of GHB are reported.
# [2] = cited from earlier work
smiles,measurement,setting,value
Nc1ccc(CNC(=O)CCCO)cc1 [Compound 3)],Neuropharmacological profile,rats,biphasic neuropharmacological profile
same,Excitatory effects Duration,rats; dose 25-50 mg/kg,60 min
same,Excitatory effects Start,rats; dose 25-50 mg/kg,30 min
same,Potency compared with GHB,rats,more powerful than GHB
Cc1ccc(CNC(=O)CCCO)cc1 [Compound 5)],Potency (dose) and duration of action compared with GHB,rats,substantially superimposable to GHB acid
same,Dosage required for excitatory effects,rats; GHB reference excitatory dose 100 mg/kg,100 mg/kg
same,Neuropharmacological profile,rats,biphasic neuropharmacological profile
same,Excitatory effects Start,rats; dose 100 mg/kg,20 min
same,< % (per cent decrease in motor activity),[1]; dose 300 mg/kg,77%
COc1cc(CNC(=O)CCCO)cc(OC)c1 [Compound 8)],Excitatory effects Duration,rats; dose 100 mg/kg,30 min
same,Excitatory effects Start,rats; dose 100 mg/kg,60 min
same,< % (per cent decrease in motor activity),[1]; dose 300 mg/kg,68%
COCCCC(=O)NCc1ccc(C)cc1 [Compound 7)],Potency (dose) and duration of action compared with GHB,rats,better than those of GHB
same,Neuropharmacological profile,rats,biphasic neuropharmacological profile
same,Excitatory effects Start,rats; dose 25-50 mg/kg,20 min
same,Duration of action compared with GHB,rats,longer duration of action
same,Potency compared with GHB,rats,more powerful than GHB
same,< % (per cent decrease in motor activity),[1]; dose 100 mg/kg,76%
CCOCCCC(=O)NCc1ccc(C)cc1 [Compound 12)],Neuropharmacological profile,rats,biphasic neuropharmacological profile
same,Excitatory effects Duration,rats; dose 25-50 mg/kg,30 min
same,Excitatory effects Start,rats; dose 25-50 mg/kg,60 min
same,Potency compared with GHB,rats,more powerful than GHB
same,< % (per cent decrease in motor activity),[1]; dose 100 mg/kg,54.5%
COc1ccc(CNC(=O)CCCO)cc1 [Compound 6)],Excitatory effects Duration,rats; dose 25-50 mg/kg,45 min
same,Excitatory effects Start,rats; dose 25-50 mg/kg,45 min
same,< % (per cent decrease in motor activity),[1]; dose 300 mg/kg,57%
COCCCC(=O)NCc1ccccc1 [Compound 10)],Neuropharmacological profile,rats,biphasic neuropharmacological profile
same,Excitatory effects Duration,rats; dose 25-50 mg/kg,30 min
same,Excitatory effects Start,rats; dose 25-50 mg/kg,20 min
same,Potency compared with GHB,rats,more powerful than GHB
same,< % (per cent decrease in motor activity),[1]; dose 100 mg/kg,42%
COCCCC(=O)NCc1ccc(Cl)cc1 [Compound 11)],Neuropharmacological profile,rats,biphasic neuropharmacological profile
same,Excitatory effects Duration,rats; dose 25-50 mg/kg,60 min
same,Excitatory effects Start,rats; dose 25-50 mg/kg,20 min
same,Potency compared with GHB,rats,more powerful than GHB
same,< % (per cent decrease in motor activity),[1]; dose 100 mg/kg,70%
O=C(CCCO)NCc1ccc(Cl)cc1 [Compound 4)],Excitatory effects Duration,rats; dose 50-100 mg/kg,45 min
same,Excitatory effects Start,rats; dose 50-100 mg/kg,30 min
same,< % (per cent decrease in motor activity),[1]; dose 100 mg/kg,0%
same,< % (per cent decrease in motor activity),[1]; dose 300 mg/kg,80%
"O=C(O)CCCO [GHB, γ-hydroxybutyric acid]",Duration of action (excitatory effects),rats; GHB reference,1 h
same,Neuropharmacological profile,rats,causes excitation at relatively low doses and sedation at higher doses
same,"Maximum concentration peak, time after administration",[2]; absorption by the gastroenteric apparatus,35 to 40 min
same,Half-life time,[2]; in vivo,20 to 25 min
COCCCC(=O)NCc1ccc(C(F)(F)F)cc1 [Compound 15)],Potency (dose) and duration of action compared with GHB,rats,better than those of GHB
same,Neuropharmacological profile,rats,biphasic neuropharmacological profile
same,Excitatory effects Start,rats; dose 25-50 mg/kg,20 min
same,Duration of action compared with GHB,rats,longer duration of action
same,Potency compared with GHB,rats,more powerful than GHB
same,< % (per cent decrease in motor activity),[1]; dose 25-50 mg/kg,64%
CCCOCCCC(=O)NCc1ccc(C)cc1 [Compound 13)],Neuropharmacological profile,rats,biphasic neuropharmacological profile
same,Excitatory effects Duration,rats; dose 100 mg/kg,30 min
same,Excitatory effects Start,rats; dose 100 mg/kg,45 min
same,< % (per cent decrease in motor activity),[1]; dose 100 mg/kg,58%
COCCCC(=O)NCc1cccc2ccccc12 [Compound 14)],Potency (dose) and duration of action compared with GHB,rats,better than those of GHB
same,Neuropharmacological profile,rats,biphasic neuropharmacological profile
same,Excitatory effects Duration,rats; dose 25-50 mg/kg,180 min
same,Excitatory effects Start,rats; dose 25-50 mg/kg,30 min
same,Duration of action compared with GHB,rats,longer duration of action
same,Potency compared with GHB,rats,more powerful than GHB
same,< % (per cent decrease in motor activity),[1]; dose 50 mg/kg,65%
same,< % (per cent decrease in motor activity),[1]; dose 100 mg/kg,75%
CCCNC(=O)CCCO [Compound 2)],< % (per cent decrease in motor activity),[1]; dose 300 mg/kg,82%
O=C(CCCO)NCc1cccnc1 [Compound 9)],Excitatory effects Duration,rats; dose 100 mg/kg,15 min
same,Excitatory effects Start,rats; dose 100 mg/kg,60 min
same,< % (per cent decrease in motor activity),[1]; dose 300 mg/kg,72%
same,< % (per cent decrease in motor activity),[1]; dose 100-200 mg/kg,0%
